Measured values: patent publication US10022453B2 (BAYER PHARMA AKTIENGESELLSCHAFT, priority 2013, dated 2018)

Experiments:
[1] = target: T1, human kinesin spindle protein KSP/Eg5 (Homo sapiens, UniProt P52732); assay: Inhibition of the kinesin spindle protein KSP/Eg5 (ATPase, malachite green); format: biochemical; conditions: 10 nM KSP motor domain, 500 μM ATP, 2 h RT
T1 construct: The motor domain of the human kinesin spindle protein KSP/Eg5; purchased tebu-bio/Cytoskeleton Inc 027EG01-XL
T1 sequence (P52732 18-359 limits assumed): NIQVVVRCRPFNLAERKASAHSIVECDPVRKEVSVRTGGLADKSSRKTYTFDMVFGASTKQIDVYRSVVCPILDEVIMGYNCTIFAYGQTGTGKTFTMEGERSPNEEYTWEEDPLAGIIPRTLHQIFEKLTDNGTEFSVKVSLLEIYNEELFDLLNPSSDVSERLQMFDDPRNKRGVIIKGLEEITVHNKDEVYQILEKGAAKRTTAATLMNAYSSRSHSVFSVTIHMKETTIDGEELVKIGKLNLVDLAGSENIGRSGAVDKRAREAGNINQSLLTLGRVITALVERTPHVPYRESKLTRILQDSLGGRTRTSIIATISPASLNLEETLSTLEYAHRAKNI
Summary of the method: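 KSP/Eg5 motor domain (10 nM) preincubated 5 min at RT with 50 μg/ml taxol-stabilized bovine or porcine microtubules in 15 mM PIPES pH 6.8, 5 mM MgCl2, 10 mM DTT. IC50 = mean of three experiments.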

NCI-H292 = assay: Cytotoxic effects, MTT assay; format: cell-based; conditions: Homo sapiens, 72 h incubation
Method: The cells are cultivated by a standard method, as indicated in the […] (ATCC) for the respective cell lines.
At the end of the selected incubation time, the MTT reagent is incubated with the cells for 4 h, followed by lysis of the cells overnight by addition of the detergent. […] The proliferation of cells which were not treated with test substance but were otherwise identically treated was defined as the 100% figure.

| SMILES | IC50 [1] [nM] | IC50 (NCI-H292) [nM] |
| --- | --- | --- |
| CCOCC(=O)N(CCCN)[C@@H](c1nn(-c2cc(F)ccc2F)cc1Cc1ccccc1)C(C)(C)C [Example 185, N-(3-aminopropyl)-N-{(1R)-1-[4-benzyl-1-(2,5-difluorophenyl)-1H-pyrazol-3-yl]-2,2-dimethylpropyl}-2-ethoxyacetamide] | 18 | 12 |
| CC(C)(C)[C@H](c1cc(-c2cc(F)ccc2F)cn1Cc1ccccc1)N(CCCN)C(=O)CC(F)(F)F [Example 186, N-(3-Aminopropyl)-N-{(1R)-1-[1-benzyl-4-(2,5-difluorophenyl)-1H-pyrrol-2-yl]-2,2-dimethylpropyl}-3,3,3-trifluoropropanamide] | 25.3 | 9.29 |
| CC(C)(C)[C@H](c1cc(-c2cc(F)ccc2F)cn1Cc1ccccc1)N(CCCN)C(=O)c1ccc(F)cc1 [Example 187, N-(3-aminopropyl)-N-{(1R)-1-[1-benzyl-4-(2,5-difluorophenyl)-1H-pyrrol-2-yl]-2,2-dimethylpropyl}-4-fluorobenzamide] | 14.1 | 1.98 |
| CC(=O)N(CCCN)[C@@H](c1cc(-c2cc(F)ccc2F)cn1Cc1ccccc1)C(C)(C)C [Example 188, N-(3-aminopropyl)-N-{(1R)1-[1-benzyl-4-(2,5-difluorophenyl)-1H-pyrrol-2-yl]-2,2-dimethylpropyl}acetamide] | 10.1 | 0.928 |
| CC(C)(C)[C@H](c1cc(-c2cc(F)ccc2F)cn1Cc1ccccc1)N(CCCN)C(=O)c1ccc(C(F)(F)F)cc1 [Example 189, N-(3-aminopropyl)-N-{(1R)-1-[1-benzyl-4-(2,5-difluorophenyl)-1H-pyrrol-2-yl]-2,2-dimethylpropyl}-4-(trifluoromethyl)benzamide] | 11.2 | 8.76 |
| CC(C)(C)[C@H](c1cc(-c2cc(F)ccc2F)cn1Cc1ccccc1)N(CCCN)C(=O)c1ccc(F)cc1F [Example 190] | 9.61 | 5.42 |
| CC(C)(C)[C@H](c1cc(-c2cc(F)ccc2F)cn1Cc1ccccc1)N(CC[C@H](N)C(=O)NCCC(=O)O)C(=O)CO [Example 200, N-{(2S)-2-Amino-4-[{(1R)-1-[1-benzyl-4-(2,5-difluorophenyl)-1H-pyrrol-2-yl]-2,2-dimethylpropyl}(glycoloyl)amino]butanoyl}-beta-alanine/trifluoroacetic acid (1:1)] | 0.108 | 140 |
| C[C@H](NC(=O)[C@@H](N)CCN(C(=O)CO)[C@@H](c1cc(-c2cc(F)ccc2F)cn1Cc1ccccc1)C(C)(C)C)C(=O)O [Example 202, N-{(2S)-2-Amino-4-{[(1R)-1-[1-benzyl-4-(2,5-difluorophenyl)-1H-pyrrol-2-yl]-2,2-dimethylpropyl}(glycoloyl)amino]butanoyl}-L-alanine/trifluoroacetic acid (1:1)] | 0.256 | 422 |
| Cc1ccc(C(=O)N(CCCN)[C@@H](c2cc(-c3cc(F)ccc3F)cn2Cc2ccccc2)C(C)(C)C)cc1 [Example 219, Trifluoroacetic acid/N-(3-aminopropyl)-N-{(1R)-1-[1-benzyl-4-(2,5-difluorophenyl)-1H-pyrrol-2-yl]-2,2-dimethylpropyl}-4-methylbenzamide (1:1)] | 1.13 | 3.48 |
| CSc1ccc(C(=O)N(CCCN)[C@@H](c2cc(-c3cc(F)ccc3F)cn2Cc2ccccc2)C(C)(C)C)cc1 [Example 220, Trifluoroacetic acid/N-(3-aminopropyl)-N-{(1R)-1-[1-benzyl-4-(2,5-difluorophenyl)-1H-pyrrol-2-yl]-2,2-dimethylpropyl}-4-(methylsulphanyl)benzamide (1:1)] | 1.45 | 0.197 |
| C[C@H](O)C(=O)N(CCCN)[C@@H](c1cc(-c2cc(F)ccc2F)cn1Cc1ccccc1)C(C)(C)C [Example 221, Trifluoroacetic acid/(2S)—N-(3-aminopropyl)-N-{(1R)-1-[1-benzyl-4-(2,5-difluorophenyl)-1H-pyrrol-2-yl]-2,2-dimethylpropyl}-2-hydroxypropanamide (1:1)] | 0.112 | 0.1 |
| CSCC(=O)N(CCCN)[C@@H](c1cc(-c2cc(F)ccc2F)cn1Cc1ccccc1)C(C)(C)C [Example 222, Trifluoroacetic acid/N-(3-aminopropyl)-N-{(1R)-1-[1-benzyl-4-(2,5-difluorophenyl)-1H-pyrrol-2-yl]-2,2-dimethylpropyl}-2-(methylsulphanyl)acetamide (1:1)] | 1.58 | 3.3 |
| C[C@H](O)C(=O)N(CCCN)[C@@H](c1nn(-c2cc(F)ccc2F)cc1Cc1ccccc1)C(C)(C)C [Example 223, Trifluoroacetic acid/(2S)—N-(3-aminopropyl)-N-{(1R)-1-[4-benzyl-1-(2,5-difluorophenyl)-1H-pyrazol-3-yl]-2,2-dimethylpropyl}-2-hydroxypropanamide (1:1)] | 0.289 | 0.0077 |
| COC(=O)CCC(=O)N(CCCN)[C@@H](c1cc(-c2cc(F)ccc2F)cn1Cc1ccccc1)C(C)(C)C [Example 224, Trifluoroacetic acid/methyl 4-[(3-aminopropyl){(1R)-1-[1-benzyl-4-(2,5-difluorophenyl)-1H-pyrrol-2-yl]-2,2-dimethylpropyl}amino]-4-oxobutanoate (1:1)] | 0.196 | 0.00337 |
| CC(C)(C)[C@H](c1cc(-c2cc(F)ccc2F)cn1Cc1ccccc1)N(CCCN)C(=O)CCC(=O)O [Example 225, 4-[(3-Aminopropyl) {(1R)-1-[1-benzyl-4-(2,5-difluorophenyl)-1H-pyrrol-2-yl]-2,2-dimethylpropyl}amino]-4-oxobutanoic acid/trifluoroacetic acid (1:1)] | 0.425 | 1.51 |
| CC(C)(C)[C@H](c1nn(-c2cc(F)ccc2F)cc1Cc1ccccc1)N(CCCN)C(=O)c1ccc(N)cc1 [Example 227, Trifluoroacetic acid/4-amino-N-(3-aminopropyl)-N-{(1R)-1-[4-benzyl-1-(2,5-difluorophenyl)-1H-pyrazol-3-yl]-2,2-dimethylpropyl}benzamide (2:1)] | 1.78 | 1.82 |
| CC(=O)N[C@@H](CSCC(=O)N(CCCN)[C@@H](c1cc(-c2cc(F)ccc2F)cn1Cc1ccccc1)C(C)(C)C)C(=O)O [Example 228, N-Acetyl-S-{2-[(3-aminopropyl){(1R)-1-[1-benzyl-4-(2,5-difluorophenyl)-1H-pyrrol-2-yl]-2,2-dimethylpropyl}amino]-2-oxoethyl}-L-cysteine/trifluoroacetic acid (1:1)] | 3.07 | 5.36 |
| CC(=O)N[C@@H](CSCC(=O)N(CCCNC(=O)[C@H](C)N)[C@@H](c1cc(-c2cc(F)ccc2F)cn1Cc1ccccc1)C(C)(C)C)C(=O)O [Example 229, N-acetyl-S-[2-([3-(L-alanylamino)propyl]{(1R)-1-[1-benzyl-4-(2,5-difluorophenyl)-1H-pyrrol-2-yl]-2,2-dimethylpropyl}amino)-2-oxoethyl]-L-cysteine/trifluoroacetic acid (1:1)] | 4.44 | ≥ 500 |
| CC(C)(C)[C@H](c1cc(-c2cc(F)ccc2F)cn1Cc1ccccc1)N(CCCN)C(=O)[C@@H]1CCCO1 [Example 230, Trifluoroacetic acid/(2S)—N-(3-aminopropyl)-N-{(1R)-1-[1-benzyl-4-(2,5-difluorophenyl)-1H-pyrrol-2-yl]-2,2-dimethylpropyl}tetrahydrofuran-2-carboxamide (1:1)] | 3.41 | 0.0121 |
